Measured values as given in US20230024442A1, “BIFUNCTIONAL COMPOUNDS FOR GRADING BTK VIA UBIQUITIN PROTEOSOME PATHWAY” (NURIX THERAPEUTICS, INC., priority 2019, published 2023).

Molecular target: T1, BTK (Homo sapiens, UniProt Q06187)
T1 construct: endogenous in cells; host or cells: Ramos (ATCC CRL-1596)
Test: Cellular BTK HTRF Assay (BTK levels in Ramos cells)
Type: cell-based
Conditions: Ramos cells, 50,000 cells, incubated four hours at 37° C.; BTK levels by Cisbio Total-BTK HTRF relative to DMSO-treated cells
Procedure: Ramos (CRL-1596) cells were obtained from American Type Culture Collection and were grown in RPMI-1640 media (ATCC, 30-2001) supplemented with 10% heat-inactivated FBS (Corning Premium Fetal Bovine Serum from Fisher, MT35015CV).
Compounds of the present invention were added to 50,000 Ramos cells in round-bottom 96 well plates with a final DMSO concentration of […] and were incubated at 37° C. 5% CO2 for four hours. BTK levels were determined using Cisbio Total-BTK HTRF ([…] Time-Resolved Fluorescence) kit (63ADK064PEG) according to manufacturer's protocol. Briefly, cells were incubated in 1× supplied lysis buffer for 30 minutes. In an opaque white low volume 96 well plate (Cisbio, 66PL96005), cell lysate was combined with two different specific BTK antibodies, one conjugated with Eu^3+-Cryptate FRET donor and one conjugated with d2 FRET acceptor. Assay controls include wells containing cell lysate with only the Eu^3+-Cryptate FRET donor antibody and wells containing both HTRF antibodies and lysis buffer without cells or control lysate provided by Cisbio. HTRF ratio was calculated as (acceptor signal at 665 nm/donor signal at 620 nm)×10^4. Background HTRF levels were determined from the control well containing the donor, but no acceptor, antibody. Background HTRF levels were subtracted from all samples. Readouts were reported as HTRF levels relative to HTRF levels of DMSO-treated cells. Four-parameter non-linear regressions were performed in GraphPad Prism 7.02 to obtain DC50 values. DC50 values are provided in Table 7, wherein A<1 nM, 1 nM≤B≤10 nM, and 10 nM<C<1 μM.

T1 sequence (Q06187 whole entry): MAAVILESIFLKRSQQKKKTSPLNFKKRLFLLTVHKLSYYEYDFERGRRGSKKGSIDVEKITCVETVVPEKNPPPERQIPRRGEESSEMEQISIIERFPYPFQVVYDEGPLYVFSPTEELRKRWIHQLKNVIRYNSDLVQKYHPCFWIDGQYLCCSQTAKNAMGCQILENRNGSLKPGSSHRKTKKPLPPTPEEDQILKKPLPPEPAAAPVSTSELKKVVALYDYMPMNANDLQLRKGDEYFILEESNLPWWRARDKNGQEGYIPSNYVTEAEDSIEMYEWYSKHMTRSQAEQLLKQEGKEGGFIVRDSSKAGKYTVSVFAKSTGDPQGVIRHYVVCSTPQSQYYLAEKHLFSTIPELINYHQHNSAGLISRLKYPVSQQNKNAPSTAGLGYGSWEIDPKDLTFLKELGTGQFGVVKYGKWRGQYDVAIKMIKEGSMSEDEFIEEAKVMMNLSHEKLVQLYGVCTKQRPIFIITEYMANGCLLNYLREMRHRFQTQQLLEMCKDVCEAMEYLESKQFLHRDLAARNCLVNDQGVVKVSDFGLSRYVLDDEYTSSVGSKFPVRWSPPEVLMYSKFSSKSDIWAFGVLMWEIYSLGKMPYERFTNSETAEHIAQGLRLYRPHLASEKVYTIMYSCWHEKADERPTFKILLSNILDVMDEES

| SMILES | DC50 |
| --- | --- |
| C[C@@H]1CN(C(=O)NCCCCCCOCCCc2cccc3c2CN(C2CCC(=O)NC2=O)C3=O)CCN1c1ccc(Nc2cc(-c3ccnc(N4CCn5c(cc6c5CC(C)(C)C6)C4=O)c3CO)cn(C)c2=O)nc1 (stereo partly shown) [Compound 48] | 1 to 10 nM |
| C[C@H]1CN(C(=O)CCCN2CCN(c3cc4c(cc3F)C(=O)N(C3CCC(=O)NC3=O)C4=O)CC2)CCN1c1ccc(Nc2cc(-c3ccnc(N4CCn5c(cc6c5CC(C)(C)C6)C4=O)c3CO)cn(C)c2=O)nc1 (stereo partly shown) [Compound 58] | 1 to 10 nM |
| Cn1cc(-c2ccnc(-n3ncc4cc(C(C)(C)C)cc(F)c4c3=O)c2CO)cc(Nc2cc3n(n2)CCN(C(=O)CCOCCCc2cccc4c2C(=O)N(C2CCC(=O)NC2=O)C4=O)C3)c1=O (stereo not shown) [Compound 21] | 10 to 1000 nM |
| Cn1cc(-c2ccnc(-n3ncc4cc(C(C)(C)C)cc(F)c4c3=O)c2CO)cc(Nc2cc3n(n2)CCN(C(=O)[C@H]2CC[C@H](Nc4cccc5c4C(=O)N(C4CCC(=O)NC4=O)C5=O)CC2)C3)c1=O (stereo partly shown) [Compound 15] | 1 to 10 nM |
| C[C@H]1CN(C(=O)CN2CCN(CCCc3cccc4c3CN(C3CCC(=O)NC3=O)C4=O)CC2)CCN1c1ccc(Nc2cc(-c3ccnc(N4CCn5c(cc6c5CC(C)(C)C6)C4=O)c3CO)cn(C)c2=O)nc1 (stereo partly shown) [Compound 30] | 1 to 10 nM |
| Cn1cc(-c2ccnc(-n3ncc4cc(C(C)(C)C)cc(F)c4c3=O)c2CO)cc(Nc2cc3n(n2)CCN(C(=O)CCNc2cccc4c2C(=O)N(C2CCC(=O)NC2=O)C4=O)C3)c1=O (stereo not shown) [Compound 10] | 10 to 1000 nM |
| C[C@H]1CN(CCOCCOCCOCCOCCOCCNc2cccc3c2C(=O)N(C2CCC(=O)NC2=O)C3=O)CCN1c1ccc(Nc2cc(-c3ccnc(N4CCn5c(cc6c5CC(C)(C)C6)C4=O)c3CO)cn(C)c2=O)nc1 (stereo partly shown) [Compound 39] | 1 to 10 nM |
| Cn1cc(-c2ccnc(-n3ncc4cc(C(C)(C)C)cc(F)c4c3=O)c2CO)cc(Nc2cc3n(n2)CCN(CCCc2cccc4c2CN(C2CCC(=O)NC2=O)C4=O)C3)c1=O (stereo not shown) [Compound 20] | 1 to 10 nM |
| Cn1cc(-c2ccnc(-n3ccc4cc(C5CC5)cc(F)c4c3=O)c2CO)cc(Nc2cc3n(n2)CCN(C(=O)CCOCCCc2ccc4c(c2)C(=O)N(C2CCC(=O)NC2=O)C4=O)C3)c1=O (stereo not shown) [Compound 24] | 1 to 10 nM |
| Cn1cc(-c2ccnc(-n3ncc4cc(C(C)(C)C)cc(F)c4c3=O)c2CO)cc(Nc2cc3n(n2)CCN(CCCCCCc2cccc4c2CN(C2CCC(=O)NC2=O)C4=O)C3)c1=O (stereo not shown) [Compound 19] | 1 to 10 nM |
| Cn1cc(-c2ccnc(-n3ncc4cc(C(C)(C)C)cc(F)c4c3=O)c2CO)cc(Nc2cc3n(n2)CCN(C(=O)CCCNc2cccc4c2C(=O)N(C2CCC(=O)NC2=O)C4=O)C3)c1=O (stereo not shown) [Compound 9] | 1 to 10 nM |
| Cn1cc(-c2ccnc(-n3ncc4cc(C(C)(C)C)cc(F)c4c3=O)c2CO)cc(Nc2cc3n(n2)CCN(C(=O)CCCN2CCN(c4cc5c(cc4F)C(=O)N(C4CCC(=O)NC4=O)C5=O)CC2)C3)c1=O (stereo not shown) [Compound 23] | 1 to 10 nM |
| CN[C@@H](C)C(=O)N[C@H](C(=O)N1CCC[C@H]1c1nc(C(=O)c2cccc(OCCOCCC(=O)N3CCn4nc(Nc5cc(-c6ccnc(-n7ncc8cc(C(C)(C)C)cc(F)c8c7=O)c6CO)cn(C)c5=O)cc4C3)c2)cs1)C1CCCCC1 [Compound 6, (S)—N—((S)-2-((S)-2-(4-(3-(2-(3-(2-((2′-(6-(tert-butyl)-8-fluoro-1-oxophthalazin-2(1H)-yl)-3′-(hydroxymethyl)-1-methyl-6-oxo-1,6-dihydro-[3,4′-bipyridin]-5-yl)amino)-6,7-dihydropyrazolo[1,5-a]pyrazin-5(4H)-yl)-3-oxopropoxy)ethoxy)benzoyl)thiazol-2-yl)pyrrolidin-1-yl)-1-cyclohexyl-2-oxoethyl)-2-(methylamino)propanamide] | 10 to 1000 nM |
| Cn1cc(-c2ccnc(-n3ncc4cc(C(C)(C)C)cc(F)c4c3=O)c2CO)cc(Nc2cc3n(n2)CCN(CCCCc2cccc4c2CN(C2CCC(=O)NC2=O)C4=O)C3)c1=O (stereo not shown) [Compound 18] | 1 to 10 nM |
| Cn1cc(-c2ccnc(-n3ncc4cc(C(C)(C)C)cc(F)c4c3=O)c2CO)cc(Nc2cc3n(n2)CCN(C(=O)CN2CCN(CCCc4cccc5c4CN(C4CCC(=O)NC4=O)C5=O)CC2)C3)c1=O (stereo not shown) [Compound 16] | 10 to 1000 nM |
| Cn1cc(-c2ccnc(-n3ncc4cc(C(C)(C)C)cc(F)c4c3=O)c2CO)cc(Nc2cc3n(n2)CCN(C(=O)CCOCCCc2cccc4c2CN(C2CCC(=O)NC2=O)C4=O)C3)c1=O (stereo not shown) [Compound 2] | 10 to 1000 nM |
| C[C@@H]1CN(C(=O)CCOCCOCCOCCOCCCc2cccc3c2CN(C2CCC(=O)NC2=O)C3=O)CCN1c1ccc(Nc2cc(-c3ccnc(N4CCn5c(cc6c5CC(C)(C)C6)C4=O)c3CO)cn(C)c2=O)nc1 (stereo partly shown) [Compound 54] | 1 to 10 nM |
| CN[C@@H](C)C(=O)N[C@H](C(=O)N1C[C@@H](NC(=O)CCOCCC(=O)N2CCn3nc(Nc4cc(-c5ccnc(-n6ncc7cc(C(C)(C)C)cc(F)c7c6=O)c5CO)cn(C)c4=O)cc3C2)C[C@H]1C(=O)N[C@@H]1CCCc2ccccc21)C1CCCCC1 [Compound 4, (2S,4S)-4-(3-(3-(2-((2′-(6-(tert-butyl)-8-fluoro-1-oxophthalazin-2(1H)-yl)-3′-(hydroxymethyl)-1-methyl-6-oxo-1,6-dihydro-[3,4′-bipyridin]-5-yl)amino)-6,7-dihydropyrazolo[1,5-a]pyrazin-5(4H)-yl)-3-oxopropoxy)propanamido)-1-((S)-2-cyclohexyl-2-((S)-2-(methylamino)propanamido)acetyl)—N—((R)-1,2,3,4-tetrahydronaphthalen-1-yl)pyrrolidine-2-carboxamide] | 10 to 1000 nM |
| C[C@H]1CN(C(=O)CCOCCOCCOCCCc2cccc3c2CN(C2CCC(=O)NC2=O)C3=O)CCN1c1ccc(Nc2cc(-c3ccnc(N4CCn5c(cc6c5CC(C)(C)C6)C4=O)c3CO)cn(C)c2=O)nc1 (stereo partly shown) [Compound 49] | 1 to 10 nM |
| C[C@H]1CN(C(=O)CCOCCOCCOCCOCCOCCCc2cccc3c2CN(C2CCC(=O)NC2=O)C3=O)CCN1c1ccc(Nc2cc(-c3ccnc(N4CCn5c(cc6c5CC(C)(C)C6)C4=O)c3CO)cn(C)c2=O)nc1 (stereo partly shown) [Compound 53] | < 1 nM |
| Cn1cc(-c2ccnc(-n3ncc4cc(C(C)(C)C)cc(F)c4c3=O)c2CO)cc(Nc2cc3n(n2)CCN(C(=O)CN2CCN(CCCc4cccc5c4C(=O)N(C4CCC(=O)NC4=O)C5=O)CC2)C3)c1=O (stereo not shown) [Compound 14] | 1 to 10 nM |

More lines, now with the values ahead:

| DC50 | SMILES |
| --- | --- |
| 10 to 1000 nM | C[C@H]1CN(C(=O)CCNc2cccc3c2C(=O)N(C2CCC(=O)NC2=O)C3=O)CCN1c1ccc(Nc2cc(-c3ccnc(N4CCn5c(cc6c5CC(C)(C)C6)C4=O)c3CO)cn(C)c2=O)nc1 (stereo partly shown) [Compound 36] |
| 1 to 10 nM | C[C@H]1CN(C(=O)CNc2cccc3c2C(=O)N(C2CCC(=O)NC2=O)C3=O)CCN1c1ccc(Nc2cc(-c3ccnc(N4CCn5c(cc6c5CC(C)(C)C6)C4=O)c3CO)cn(C)c2=O)nc1 (stereo partly shown) [Compound 35] |
| 1 to 10 nM | C[C@H]1CN(C(=O)[C@H]2CC[C@H](Nc3cccc4c3C(=O)N(C3CCC(=O)NC3=O)C4=O)CC2)CCN1c1ccc(Nc2cc(-c3ccnc(N4CCn5c(cc6c5CC(C)(C)C6)C4=O)c3CO)cn(C)c2=O)nc1 (stereo partly shown) [Compound 31] |
| 1 to 10 nM | C[C@H]1CN(C(=O)CCOCCCc2cccc3c2CN(C2CCC(=O)NC2=O)C3=O)CCN1c1ccc(Nc2cc(-c3ccnc(N4CCn5c(cc6c5CC(C)(C)C6)C4=O)c3CO)cn(C)c2=O)nc1 (stereo partly shown) [Compound 43] |
| < 1 nM | C[C@H]1CN(C(=O)[C@H]2C[C@@H](OCCNc3cccc4c3C(=O)N(C3CCC(=O)NC3=O)C4=O)C2)CCN1c1ccc(Nc2cc(-c3ccnc(N4CCn5c(cc6c5CC(C)(C)C6)C4=O)c3CO)cn(C)c2=O)nc1 (stereo partly shown) [Compound 25] |
| 1 to 10 nM | C[C@@H]1CN(C(=O)CCOCCOCCOCCOCCOCCNc2cccc3c2C(=O)N(C2CCC(=O)NC2=O)C3=O)CCN1c1ccc(Nc2cc(-c3ccnc(N4CCn5c(cc6c5CC(C)(C)C6)C4=O)c3CO)cn(C)c2=O)nc1 (stereo partly shown) [Compound 50] |
| 1 to 10 nM | C[C@H]1CN(C(=O)CN2CCN(CCCc3cccc4c3C(=O)N(C3CCC(=O)NC3=O)C4=O)CC2)CCN1c1ccc(Nc2cc(-c3ccnc(N4CCn5c(cc6c5CC(C)(C)C6)C4=O)c3CO)cn(C)c2=O)nc1 (stereo partly shown) [Compound 32] |
| 1 to 10 nM | C[C@@H]1CN(C(=O)CCCN2CCN(c3ccc4c(c3)C(=O)N(C3CCC(=O)NC3=O)C4=O)CC2)CCN1c1ccc(Nc2cc(-c3ccnc(N4CCn5c(cc6c5CC(C)(C)C6)C4=O)c3CO)cn(C)c2=O)nc1 (stereo partly shown) [Compound 56] |
| 1 to 10 nM | C[C@@H]1CN(CCOCCOCCOCCNc2cccc3c2C(=O)N(C2CCC(=O)NC2=O)C3=O)CCN1c1ccc(Nc2cc(-c3ccnc(N4CCn5c(cc6c5CC(C)(C)C6)C4=O)c3CO)cn(C)c2=O)nc1 (stereo partly shown) [Compound 41] |
| 1 to 10 nM | C[C@H]1CN(C(=O)CCOCCOCCOCCNc2cccc3c2C(=O)N(C2CCC(=O)NC2=O)C3=O)CCN1c1ccc(Nc2cc(-c3ccnc(N4CCn5c(cc6c5CC(C)(C)C6)C4=O)c3CO)cn(C)c2=O)nc1 (stereo partly shown) [Compound 52] |
